Laboratory results taken from ChEMBL document CHEMBL5233262, “Anti-inflammatory activity of naturally occuring diarylheptanoids - A review” (Bioorg Med Chem, 2021).
Values belong to the compound of their own block, whether it stands above or below them.

Key:
Hepatocyte [1] = test: Hepatoprotective activity against CCL4-induced rat hepatocyte toxicity assessed as decrease in ALT level at 1 uM preincubated for 30 mins followed by CCL4 addition and measured after 180 mins by colorimetric method; type: functional; parameters: scale not given: the % may be the effect or the level left; details: time 210 min
Hepatocyte [2] = test: Hepatoprotective activity against CCL4-induced rat hepatocyte toxicity assessed as decrease in TNF-alpha level at 1 uM preincubated for 30 mins followed by CCL4 addition and measured after 180 mins by ELISA; type: functional; parameters: scale not given: the % may be the effect or the level left; details: time 210 min
Hepatocyte [3] = test: Hepatoprotective activity against CCL4-induced rat hepatocyte toxicity assessed as decrease in IL-1beta level at 1 uM preincubated for 30 mins followed by CCL4 addition and measured after 180 mins by ELISA; type: functional; parameters: scale not given: the % may be the effect or the level left; details: time 210 min
Hepatocyte [4] = test: Hepatoprotective activity against CCL4-induced rat hepatocyte toxicity assessed as decrease in TBARS level by measuring MDA formation at 1 uM preincubated for 30 mins followed by CCL4 addition and measured after 180 mins by TBARS method; type: functional; parameters: scale not given: the % may be the effect or the level left; details: time 210 min
RAW264.7 [5] = test: Antiinflammatory activity in mouse RAW264.7 cells assessed as inhibition of KLA-induced TNFalpha expression at 0.06 mg/ml and measured after 24 hrs by ELISA; type: functional
RAW264.7 [6] = test: Antiinflammatory activity in mouse RAW264.7 cells assessed as inhibition of LPS-induced TNFalpha production preincubated for 1 hr followed by LPS stimulation and measured after 18 hrs by immunoassay; type: functional, cell-based
RAW264.7 [7] = test: Antiinflammatory activity in mouse RAW264.7 cells assessed as inhibition of LPS-induced NO production incubated for 24 hrs by Griess reagent based analysis; type: functional, cell-based; details: RAW264.7, 24 h
RAW264.7 [8] = test: Antiinflammatory activity in mouse RAW264.7 cells assessed as inhibition of LPS-induced NF-kappaB expression preincubated for 1 hr followed by LPS stimulation and measured after 18 hrs by qPCR analysis; type: functional, cell-based
RAW264.7 [9] = test: Antiinflammatory activity in mouse RAW264.7 cells assessed as inhibition of LPS-induced IL-6 production at 10 uM preincubated for 2 hrs followed by LPS stimulation and measured after 24 hrs by ELISA; type: functional; details: time 26 hrs
RAW264.7 [10] = test: Antiinflammatory activity in mouse RAW264.7 cells assessed as inhibition of LPS-induced TNFalpha production at 100 uM preincubated for 2 hrs followed by LPS stimulation and measured after 24 hrs by ELISA; type: functional; details: time 26 hrs
RAW264.7 [11] = test: Antiinflammatory activity in mouse RAW264.7 cells assessed as inhibition of LPS-induced NO production at 100 uM preincubated for 2 hrs followed by LPS stimulation and measured after 24 hrs by Griess method; type: functional; details: time 26 hrs
RAW264.7 [12] = test: Antiinflammatory activity in mouse RAW264.7 cells assessed as inhibition of LPS-induced IL-6 production at 100 uM preincubated for 2 hrs followed by LPS stimulation and measured after 24 hrs by ELISA; type: functional; details: time 26 hrs
RAW264.7 [13] = test: Antiinflammatory activity in mouse RAW264.7 cells assessed as inhibition of LPS-induced IL-6 production at 3 uM preincubated for 2 hrs followed by LPS stimulation and measured after 24 hrs by ELISA; type: functional; details: time 26 hrs
RAW264.7 [14] = test: Antiinflammatory activity in mouse RAW264.7 cells assessed as inhibition of LPS-induced IL-6 production at 30 uM preincubated for 2 hrs followed by LPS stimulation and measured after 24 hrs by ELISA; type: functional; details: time 26 hrs
RAW264.7 [15] = test: Antiinflammatory activity in mouse RAW264.7 cells assessed as inhibition of LPS-induced TNFalpha production at 10 uM preincubated for 2 hrs followed by LPS stimulation and measured after 24 hrs by ELISA; type: functional; details: time 26 hrs
RAW264.7 [16] = test: Antiinflammatory activity in mouse RAW264.7 cells assessed as inhibition of LPS-induced NO production at 3 uM preincubated for 2 hrs followed by LPS stimulation and measured after 24 hrs by Griess method; type: functional; details: time 26 hrs
RAW264.7 [17] = test: Antiinflammatory activity in mouse RAW264.7 cells assessed as inhibition of LPS-induced TNFalpha production at 30 uM preincubated for 2 hrs followed by LPS stimulation and measured after 24 hrs by ELISA; type: functional; details: time 26 hrs
RAW264.7 [18] = test: Antiinflammatory activity in mouse RAW264.7 cells assessed as inhibition of LPS-induced NO production at 30 uM preincubated for 2 hrs followed by LPS stimulation and measured after 24 hrs by Griess method; type: functional; details: time 26 hrs
RAW264.7 [19] = test: Antiinflammatory activity in mouse RAW264.7 cells assessed as inhibition of LPS-induced TNFalpha production at 3 uM preincubated for 2 hrs followed by LPS stimulation and measured after 24 hrs by ELISA; type: functional; details: time 26 hrs
RAW264.7 [20] = test: Antiinflammatory activity in mouse RAW264.7 cells assessed as inhibition of LPS-induced NO production at 10 uM preincubated for 2 hrs followed by LPS stimulation and measured after 24 hrs by Griess method; type: functional; details: time 26 hrs
BV-2 = test: Antiinflammatory activity in mouse BV-2 cells assessed as inhibition of LPS-induced NO production at 10 uM preincubated for 1 hrs followed by LPS stimulation and measured after 24 hrs by Griess assay; type: functional; details: time 25 hrs
RAW264.7 [21] = test: Antiinflammatory activity in mouse RAW264.7 cells assessed as inhibition of LPS-induced NF-kappaB activation incubated for 24 hrs by SEAP microplate reader analysis; type: functional, cell-based; details: RAW264.7, 24 h
[22] = Antioxidant activity assessed as nitroblue tetrazolium superoxide radical scavenging activity by spectrophotometric analysis; type: functional
[23] = Antioxidant activity assessed as nitroblue tetrazolium superoxide radical scavenging activity incubated for 10 mins by spectrophotometric analysis; type: functional
RAW264.7 [24] = test: Antiinflammatory activity in mouse RAW264.7 cells assessed as inhibition of LPS-induced TNF-alpha production; type: functional, cell-based
RAW264.7 [25] = test: Antiinflammatory activity in mouse RAW264.7 cells assessed as inhibition of LPS-induced IL-1beta production; type: functional, cell-based
RAW264.7 [26] = test: Antiinflammatory activity in mouse RAW264.7 cells assessed as inhibition of LPS-induced IL-6 production; type: functional, cell-based
RAW264.7 [27] = test: Antiinflammatory activity in mouse RAW264.7 cells assessed as inhibition of LPS-induced NO production preincubated for 0.5 hrs followed by LPS stimulation and measured after 24 hrs by Griess reagent based analysis; type: functional, cell-based
[28] = Cytotoxicity against mouse RAW264.7 cells assessed as reduction in cell viability by MTT assay; type: toxicity, cell-based

SMILES: COc1cc(CC[C@@H](CCCCc2cc(O)c(O)c(O)c2)OC(C)=O)cc(OC)c1O
Activity (Hepatocyte [1]): 61.1%
Activity (Hepatocyte [2]): 38.6%
Activity (Hepatocyte [3]): 63.6%
Activity (Hepatocyte [4]): 67.1%

SMILES: O=C(CCc1ccccc1)C[C@@H](O)CCc1ccccc1
inhibition at 60 µg/mL (RAW264.7 [5]): 35%

IC50 (RAW264.7 [6]): 22.3 µM
IC50 (RAW264.7 [7]): 18.2 µM
IC50 (RAW264.7 [8]): 9.4 µM
SMILES: COc1ccc2cc1Oc1ccc(c(O)c1OC)CCCC[C@H](O)CC2

SMILES: COc1cc(CC[C@H](O)C[C@H](O)[C@@H](O)Cc2ccc(O)cc2)ccc1O
inhibition at 10 µM (RAW264.7 [9]): 57%
inhibition at 100 µM (RAW264.7 [10]): 39%
inhibition at 100 µM (RAW264.7 [11]): 43%
inhibition at 100 µM (RAW264.7 [12]): 57%
inhibition at 3 µM (RAW264.7 [13]): 57%
inhibition at 30 µM (RAW264.7 [14]): 57%
inhibition at 10 µM (RAW264.7 [15]): 39%
inhibition at 3 µM (RAW264.7 [16]): 43%
inhibition at 30 µM (RAW264.7 [17]): 39%
inhibition at 30 µM (RAW264.7 [18]): 43%
inhibition at 3 µM (RAW264.7 [19]): 39%
inhibition at 10 µM (RAW264.7 [20]): 43%

SMILES: O=C(CCc1ccccc1)C[C@@H](O)/C=C/c1ccccc1
inhibition at 60 µg/mL (RAW264.7 [5]): 37%

IC50 (RAW264.7 [6]): 22.9 µM
IC50 (RAW264.7 [7]): 18.5 µM
IC50 (RAW264.7 [8]): 9.2 µM
SMILES: COc1c2ccc(c1O)CCCCC(=O)CCc1ccc(O)c(c1)O2

SMILES: COC(=O)[C@@H](N)CCCNC(=N)N[N+](=O)[O-] [L-NAME]
inhibition at 10 µM (BV-2): 70.5%

IC50 (RAW264.7 [21]): 3.4 µM
IC50 (RAW264.7 [6]): 2.6 µM
IC50 (RAW264.7 [7]): 2.4 µM
IC50 (RAW264.7 [8]): 3.4 µM
SMILES: C=C1C(=O)O[C@@H]2[C@H]3O[C@]3(C)CC/C=C(\C)CC[C@@H]12

SMILES: COc1cc(CCC(=O)CCCCc2ccc(O)c(O)c2)ccc1O
Activity (Hepatocyte [1]): 56.3%
Activity (Hepatocyte [2]): 43.8%
Activity (Hepatocyte [3]): 58.8%
Activity (Hepatocyte [4]): 60.4%

SMILES: Oc1ncnc2[nH]ncc12 [ALLOPURINOL]
IC50 [22]: 8 µM
IC50 [23]: 3.9 µM

IC50 (RAW264.7 [24]): 20.1 µM
IC50 (RAW264.7 [25]): 22.9 µM
IC50 (RAW264.7 [26]): 22.7 µM
SMILES: COc1cc2cc(c1O)-c1cc(ccc1O)CC[C@H](OS(=O)(=O)O)CCCC2

IC50 (RAW264.7 [27]): 2.9 µM
SMILES: O=C(/C=C/c1ccc(O)c(O)c1)CC/C=C/c1ccc(O)c(O)c1
IC50 [28]: 9 µM

SMILES: COc1cc([C@H]2C[C@H](O)C[C@@H]([C@@H](O)Cc3ccc(O)cc3)O2)ccc1O
inhibition at 10 µM (RAW264.7 [9]): 40%
inhibition at 100 µM (RAW264.7 [10]): 41%
inhibition at 100 µM (RAW264.7 [11]): 34%
inhibition at 100 µM (RAW264.7 [12]): 40%
inhibition at 3 µM (RAW264.7 [13]): 40%
inhibition at 30 µM (RAW264.7 [14]): 40%
inhibition at 10 µM (RAW264.7 [15]): 41%
inhibition at 3 µM (RAW264.7 [16]): 34%
inhibition at 30 µM (RAW264.7 [17]): 41%
inhibition at 30 µM (RAW264.7 [18]): 34%
inhibition at 3 µM (RAW264.7 [19]): 41%
inhibition at 10 µM (RAW264.7 [20]): 34%
